{
  "source": "patent US12573042B2",
  "about": "“Differentiation device, differentiation method for depression symptoms, determination method for level of depression symptoms, stratification method for depression patients, determination method for effects of treatment of depression symptoms, and brain activity training device” (ADVANCED TELECOMMUNICATIONS RESEARCH INSTITUTE INTERNATIONAL, priority 2017, dated 2026)",
  "format_in_all_cases": "in vivo, human",
  "key": {"melancholic MDD patients [1]": {"system": "melancholic MDD patients", "assay": "Change of functional connectivities FC #1 and FC #2 (rs-fMRI) through antidepressant treatment", "source_text": "Next, contribution to ΔWLS was considered for each functional connectivity in order to consider an influence of SSRI (escitalopram) on each of the 12 pairs of functional connectivities.\nSpecifically, in preliminary and subsequent analysis of administration, the following numerical expression was used to calculate a contribution score of each functional connectivity.\nThat is, si represents a difference in average connectivity strength between the healthy control group and the MDD group weighted by the weight of the classifier. […] Further, in Expression 2, FCi^MDD represents reduction (a negative sign through subtraction). […] In other words, the fact that ci becomes negative means that FCi after treatment becomes closer to the corresponding FC of a healthy individual. In contrast, the fact that ci becomes positive means that FCi after treatment becomes closer to the MDD. The numbers of members in the healthy control group and in the MDD group are different from each other, and thus the significant difference between ci and si for each FCi is evaluated by a Welch's t-test. The Welch's t-test is calculated in accordance with the following numerical expression."}, "melancholic MDD patients [2]": {"system": "melancholic MDD patients", "assay": "WLS score (related weighted sum of 12 functional connectivities, rs-fMRI) before and after antidepressant administration", "settings": "24 remitted melancholic MDD patients, administered for 6 weeks to 8 weeks, FIG. 31c", "procedure": "In this manner, a regression expression for classifying a melancholic MDD patient and a healthy individual, namely, a classifier, was created. Further, a related weighted sum (the associated weighted linear sum: WLS) was calculated as an indicator for determining whether each subject has the melancholic MDD or is healthy.\nNext, whether an effect of escitalopram, which is a selective serotonin reuptake inhibitor (SSRI), can be evaluated by the WLS score was considered. A smoothed histogram of the WLS score of each of 24 remitted melancholic MDD patients shown in Table 1a, to whom escitalopram was administered for 6 weeks to 8 weeks, is shown in FIG. 31c."}, "healthy subjects": {"system": "healthy subjects", "assay": "Change of FC #1 and FC #2 (rs-fMRI) on administration of SSRI to healthy subjects", "settings": "19 healthy subjects, single administration, p=0.033; no difference before (p=0.18)", "text": "In a test by two-way analysis of variance, the functional connectivities of FC #1 and FC #2 have a significant temporal interaction through treatment (FC #number x time, F (1,23)=6.70, p=0.016), and a significant difference was not observed for each primary effect. […] In all the diagrams of FIG. 32 and FIG. 33, transition toward the positive direction indicates transition toward the direction of the melancholic MDD, whereas transition toward the negative direction indicates transition toward the direction of the healthy individual. This is because the sign of the weight of the melancholic MDD classifier was multiplied by the FC or the difference in FC. […] Eleven melancholic MDD patients (serotonin-norepinephrine reuptake inhibitor (SNRI) duloxetine was administered for 6 weeks to 8 weeks) gathered in Chiba were considered (FIG. 32c). […] Next, the changes of FC #1 and FC #2 at the time of administration of SSRI to healthy subjects (19 persons) were observed. […] There was no difference before treatment (p=0.18), and a significant relation was […] observed (FIG. 32d)."}},
  "data": [
    {"smiles": "CNCC[C@H](Oc1cccc2ccccc12)c1cccs1", "note": "[duloxetine]", "values": [
      {"measurement": "difference between FC #1 and FC #2 after treatment", "setting": "melancholic MDD patients [1]; 11 melancholic MDD patients of Chiba, administered for 6 weeks to 8 weeks, paired t-test p=0.10, before treatment n.s. p=0.77", "result": "difference in trend level"}
    ]},
    {"smiles": "CN(C)CCC[C@@]1(c2ccc(F)cc2)OCc2cc(C#N)ccc21", "note": "[escitalopram]", "values": [
      {"measurement": "difference between FC #1 and FC #2 after treatment", "setting": "melancholic MDD patients [1]; Hiroshima cohort, corresponding t-test p=0.002, no difference before treatment (p=0.96)", "result": "significant difference was observed after treatment"},
      {"measurement": "transition of FC #1 after treatment", "setting": "melancholic MDD patients [1]; Hiroshima cohort, positive direction = direction of melancholic MDD", "result": "transitioned toward the positive direction"},
      {"measurement": "distribution of the WLS score after administration", "setting": "melancholic MDD patients [2]", "result": "shifted toward the healthy control group"}
    ]},
    {"smiles": "Fc1ccc([C@@H]2CCNC[C@H]2COc2ccc3c(c2)OCO3)cc1", "note": "[paroxetine]", "values": [
      {"measurement": "difference between FC #1 and FC #2 after administration", "setting": "healthy subjects", "result": "significant difference between FC #1 and FC #2 was observed"}
    ]}
  ]
}
